Test results taken from patent US20250212891A1, “MIXTURES AND COMPOSITIONS COMPRISING PAENIBACILLUS STRAINS OR FUSARICIDINS AND CHEMICAL PESTICIDES” (BASF SE, priority 2016, published 2025).
Read-outs that look alike come from different tables or passages of the source. Positions of bridges follow the written chain, without caps; N, C: chain ends. Non-standard residues stand in square brackets, D forms with d. Residues, ends and D or L forms follow the SMILES beside them. ξ: configuration not given here. *: point of attachment. Pentadecanoyl(3ξ-OH,15-Gua) = N=C(N)NCCCCCCCCCCCCC(O)CC(=O)*; d(aThr) = C[C@@H](O)[C@@H](N)C(=O)O; Thr(3ξ) = CC(O)[C@H](N)C(=O)O; ξY = NC(Cc1ccc(O)cc1)C(=O)O

Assays:
Botrytis cinerea = experiment: Microtiterplate test against grey mold (Botrci); type: cell-based
Alternaria solani = experiment: Microtiterplate test against early blight (Alteso); type: cell-based
[1] = test system: Phytophthora infestans (PHYTIN); type: in vivo; details: protective application, 7.2 ppm
[2] = test system: Fusarium graminearum (GIBBZE); type: in vivo; details: protective application, 360 ppm
[3] = test system: Botrytis cinerea (BOTRCI); experiment: Fungal growth assay in 96 well plates; type: cell-based; details: evaluation 7 days after inoculation, OD 600 nm, about 18° C.; read-out: Fungal growth inhibition (IC50 [μM]) BOTRCI (7 d)
[4] = test system: Alternaria solani (ALTESO); experiment: Fungal growth assay in 96 well plates; type: cell-based; details: OD 600 nm, about 18° C.
Septoria tritici = experiment: Microtiterplate test against leaf blotch on wheat (Septtr); type: cell-based
[5] = test system: clinically relevant fungi and gram-positive bacteria such a Staphylococcus aureus; details: ChemMedChem 7, 871-882, 2012; cited from earlier work
[6] = test system: Septoria tritici (SEPTTR); type: in vivo; details: protective application, 360 ppm
Pyricularia oryzae = type: cell-based; details: Pyrior, single active, 7 days after inoculation
Leptosphaeria nodorum = experiment: Microtiterplate test against wheat leaf spots (Leptno); type: cell-based
[7] = evaluation 3 days after inoculation, read-out: Fungal growth inhibition (IC50 [μM]) ALTESO (3 d)
[8] = evaluation 7 days after inoculation, read-out: Fungal growth inhibition (IC50 [μM]) ALTESO (7 d)

With `COCC(=O)N(c1c(C)cccc1C)[C@H](C)C(=O)OC` [Mefenoxam] as the compound, how does the Observed efficacy (Botrytis cinerea; 0.063 ppm) read?
Its Observed efficacy is 5%.

What about the Observed efficacy (Alternaria solani; 1 ppm) of the same compound?
Its Observed efficacy is 18%.

Which “% efficacy (% fungal attack), late blight on tomato caused by Phytophthora infestans” value [1] does the source give for `CC(C)[C@@H]1NC(=O)[C@@H](C(C)C)NC(=O)[C@@H](NC(=O)CC(O)CCCCCCCCCCCCN=C(N)N)C(C)OC(=O)[C@@H](C)NC(=O)[C@@H](CCC(N)=O)NC(=O)[C@@H]([C@H](C)O)NC1=O` (stereo in doubt) [Fusaricidin B, fusaricidin B] here?
The value was 4%.

And the “% efficacy (% fungal attack), head blight on wheat caused by Fusarium graminearum” value [2]?
Its value is 0%.

And the IC50 [3]?
The IC50 was 0.6 µM.

What about the IC50 [4, 7] of the same compound?
The IC50 was 1.1 µM.

And the IC50 [4, 8]?
Its IC50 is 0.6 µM.

Which results are given for `O=C(NCCc1ncc(C(F)(F)F)cc1Cl)c1ccccc1C(F)(F)F` [Fluopyram]?
Observed efficacy (Septoria tritici; 0.25 ppm): 12%; Observed efficacy (Septoria tritici; 1 ppm): 32%

With `CC(C)[C@@H]1NC(=O)[C@@H](C(C)C)NC(=O)[C@@H](NC(=O)CC(O)CCCCCCCCCCCCN=C(N)N)[C@@H](C)OC(=O)[C@@H](C)NC(=O)[C@@H](CC(N)=O)NC(=O)[C@@H]([C@@H](C)O)NC1=O` (stereo partly drawn) [Fusaricidin A, fusaricidin A] ({Pentadecanoyl(3ξ-OH,15-Gua)}-T[dV]V[d(aThr)][dN][dA]; ester 1-C) as the compound, how does the “% efficacy (% fungal attack), late blight on tomato caused by Phytophthora infestans” value [1] read?
The value was 15%.

What about the “% efficacy (% fungal attack), head blight on wheat caused by Fusarium graminearum” value [2] of the same compound?
The value was 31%.

And the IC50 [3]?
The IC50 was 0.5 µM.

What about the IC50 [4, 7] of the same compound?
Its IC50 is 1.3 µM.

What about the IC50 [4, 8] of the same compound?
The IC50 was 0.7 µM.

And the MIC value range [5]?
Its MIC value range is 0.78 to 3.12 mg/L.

What does the source list for `CC1OC(=O)[C@@H](C)NC(=O)[C@@H](CCC(N)=O)NC(=O)[C@@H]([C@H](C)O)NC(=O)C(Cc2ccc(O)cc2)NC(=O)[C@@H](C(C)C)NC(=O)[C@H]1NC(=O)CC(O)CCCCCCCCCCCCN=C(N)N` (stereo partly drawn) [Fusaricidin D, fusaricidin D] ({Pentadecanoyl(3ξ-OH,15-Gua)}-[Thr(3ξ)][dV][ξY][dT][dQ][dA]; ester 1-C)?
% efficacy (% fungal attack), late blight on tomato caused by Phytophthora infestans [1]: 0%; % efficacy (% fungal attack), head blight on wheat caused by Septoria tritici [6]: 50%; IC50 [3]: 0.5 µM; IC50 [4, 7]: 1.1 µM; IC50 [4, 8]: 0.6 µM

Which results are given for `OC(Cc1ccccc1Cl)(Cn1nc[nH]c1=S)C1(Cl)CC1` (stereo not drawn) [Prothioconazol, prothioconazole, reference compound]?
Observed efficacy (Pyricularia oryzae; 0.25 ppm): 25%; Observed efficacy (Septoria tritici; 0.063 ppm): 10%

What does the source list for `CC(O)(Cn1cncn1)c1ccc(Oc2ccc(Cl)cc2)cc1C(F)(F)F` (stereo not drawn) [Mefentrifluconazol, 2-[4-(4-chlorophenoxy)-2-(trifluoromethyl)phenyl]-1-(1H-1,2,4-triazol-1-yl) propan-2-ol, reference compound]?
inhibition of growth at 0.016 ppm (Botrytis cinerea; Botrytis cinerea, 168 h, 0.016 ppm, read-out: Observed efficacy): 5%; Observed efficacy (Septoria tritici; 0.001 ppm): 21%; Observed efficacy (Alternaria solani; 0.016 ppm): 12%; Observed efficacy (Leptosphaeria nodorum; 0.001 ppm): 0%; Observed efficacy (Leptosphaeria nodorum; 0.016 ppm): 29%

With `CC1(C)CCC(=Cc2ccc(Cl)cc2)C1(O)Cn1cncn1` (stereo not drawn) [Triticonazol, triticonazole, reference compound] as the compound, how does the inhibition of growth at 0.25 ppm (Botrytis cinerea; Botrytis cinerea, 168 h, 0.25 ppm, read-out: Observed efficacy) read?
The inhibition of growth at 0.25 ppm was 19%.

What about the Observed efficacy (Pyricularia oryzae; 4 ppm) of the same compound?
The Observed efficacy was 39%.

Which Observed efficacy (Botrytis cinerea; 0.016 ppm) does the source give for `Cn1cc(C(=O)Nc2ccccc2-c2cc(F)c(F)c(F)c2)c(C(F)F)n1` [Fluxapyroxad] here?
Its Observed efficacy is 1%.

For `CNC(=O)/C(=N/OC)c1ccccc1COc1cc(C)ccc1C` [Dimoxystrobin], which Observed efficacy (Botrytis cinerea; 0.063 ppm) is on record?
The Observed efficacy was 0%.

What about the Observed efficacy (Botrytis cinerea; 1 ppm) of the same compound?
The Observed efficacy was 23%.

What about the Observed efficacy (Septoria tritici; 0.063 ppm) of the same compound?
Its Observed efficacy is 73%.

What about the Observed efficacy (Alternaria solani; 0.063 ppm) of the same compound?
Its Observed efficacy is 36%.

For `Cn1cc(C(=O)Nc2cccc3c2[C@@H]2CC[C@H]3C2=C(Cl)Cl)c(C(F)F)n1` (racemic) [Benzovindiflupyr, benzovindiflupyr, reference compound], which Observed efficacy (Botrytis cinerea; 0.063 ppm) is on record?
Its Observed efficacy is 17%.

And the Observed efficacy (Pyricularia oryzae; 0.016 ppm)?
The Observed efficacy was 72%.

And the Observed efficacy (Septoria tritici; 0.25 ppm)?
Its Observed efficacy is 77%.

And the Observed efficacy (Alternaria solani; 0.016 ppm)?
Its Observed efficacy is 12%.

What about the Observed efficacy (Leptosphaeria nodorum; 0.25 ppm) of the same compound?
The Observed efficacy was 26%.
